Assay results reported in ChEMBL document CHEMBL1201862, “PubChem BioAssay data set” (2004).
Calls of active or inactive are those of the source.

Key:
[1] = biological target: Photoreceptor-specific nuclear receptor (Homo sapiens, UniProt Q9Y5X4); type: functional, cell-based;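 also: CHO-S cells with Gal4-NCOR and VP16-NR2E3 two-hybrid luciferase reporter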
Cysteine protease ATG4B = biological target: T1, Cysteine protease ATG4B (Homo sapiens, UniProt Q9Y4P1); type: functional;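 also: Fluorescence-based dose-response confirmation assay measuring inhibition of ATG4B activity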
T1 sequence (Q9Y4P1 whole entry): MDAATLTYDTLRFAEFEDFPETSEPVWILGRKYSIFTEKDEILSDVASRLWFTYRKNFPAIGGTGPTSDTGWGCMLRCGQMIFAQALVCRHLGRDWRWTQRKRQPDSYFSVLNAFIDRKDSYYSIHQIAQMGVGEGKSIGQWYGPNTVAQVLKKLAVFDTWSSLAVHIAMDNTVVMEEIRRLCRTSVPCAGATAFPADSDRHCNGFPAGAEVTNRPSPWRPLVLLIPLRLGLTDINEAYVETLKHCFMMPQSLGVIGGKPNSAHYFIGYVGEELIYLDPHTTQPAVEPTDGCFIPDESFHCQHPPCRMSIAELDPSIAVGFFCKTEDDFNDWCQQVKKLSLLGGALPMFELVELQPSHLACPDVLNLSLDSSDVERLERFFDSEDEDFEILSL

Phospholipase A2 = Phospholipase A2 (Homo sapiens, UniProt P04054); type: functional;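 also: confirmatory dose-response counterscreen on phospholipase A2, testing hits that came from an ultra-high-throughput screen for ATG4B inhibitors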
Sequence of Phospholipase A2 (P04054 whole entry): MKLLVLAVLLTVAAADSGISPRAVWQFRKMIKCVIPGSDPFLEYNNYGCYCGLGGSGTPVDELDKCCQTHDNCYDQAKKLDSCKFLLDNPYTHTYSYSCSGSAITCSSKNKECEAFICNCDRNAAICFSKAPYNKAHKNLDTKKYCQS

Melanocortin receptor 4 = Melanocortin receptor 4 (Homo sapiens, UniProt P32245); assay: MC4R antagonist potency on cAMP, dose response, cell-based, TR-FRET, biased antagonists (AID 602298); type: functional;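 also: antagonist potency against agonist-stimulated cAMP production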
Sequence of Melanocortin receptor 4 (P32245 whole entry): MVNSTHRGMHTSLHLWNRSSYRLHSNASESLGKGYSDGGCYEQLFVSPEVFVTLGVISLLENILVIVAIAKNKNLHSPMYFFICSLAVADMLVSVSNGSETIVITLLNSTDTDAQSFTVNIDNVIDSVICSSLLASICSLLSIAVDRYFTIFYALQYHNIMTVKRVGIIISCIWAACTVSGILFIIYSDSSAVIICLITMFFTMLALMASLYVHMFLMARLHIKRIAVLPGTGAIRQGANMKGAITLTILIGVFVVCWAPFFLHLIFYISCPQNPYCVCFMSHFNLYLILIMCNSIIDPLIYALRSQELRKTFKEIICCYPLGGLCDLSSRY

[2] = nonselective inhibitors of cellular cAMP signaling, dose response, counter-screen for MC4R biased antagonist project, cell-based, TR-FRET cAMP detection (AID 602305); type: functional;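 also: U2OS cells stimulated with forskolin near its EC80 as the cAMP inducer; potency is for inhibition of forskolin-stimulated cAMP signaling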
cells [3] = type: functional, cell-based
[4] = biological target: G-protein coupled receptor 55 (Homo sapiens, UniProt Q9Y2T6); assay: GPR55 antagonists blocking LPI-driven arrestin recruitment, primary screen, imaging, U2OS, beta-arrestin-GFP, LPI agonist (AID 2013); type: functional;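 also: antagonist potency measured as reduced agonist-driven arrestin aggregation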
Sequence of G-protein coupled receptor 55 (Q9Y2T6 whole entry): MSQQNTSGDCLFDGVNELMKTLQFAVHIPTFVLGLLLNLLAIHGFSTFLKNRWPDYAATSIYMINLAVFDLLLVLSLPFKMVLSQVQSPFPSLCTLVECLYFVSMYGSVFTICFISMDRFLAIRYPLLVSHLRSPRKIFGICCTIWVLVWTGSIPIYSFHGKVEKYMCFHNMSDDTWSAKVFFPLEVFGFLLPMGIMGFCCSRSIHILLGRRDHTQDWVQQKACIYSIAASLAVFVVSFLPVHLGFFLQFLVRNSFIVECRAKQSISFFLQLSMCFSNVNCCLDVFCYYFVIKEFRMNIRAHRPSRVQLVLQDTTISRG

cells [5] = type: functional, cell-based; remark: listed apart in the source
[6] = THP-1 cell cytotoxicity, dose response, cytotoxicity control for non-replicating M. tuberculosis project (AID 489025); type: functional
Vero = assay: cells; type: functional; conditions: Chlorocebus sabaeus
[7] = inhibitors of intracellular T. cruzi replication, confirmation, NIH3T3 host cells, beta-gal luminescence (AID 2044); type: functional, cell-based;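 also: intracellular parasites grown in NIH/3T3 mouse fibroblasts as host cells; luminescent beta-galactosidase reporter signal from transgenic T. cruzi replicating inside host cells; inhibitors lower the luminescence signal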
[8] = cytotoxicity toward NIH3T3 fibroblasts, dose response, counter-screen, cell-based, ATP luminescence, mouse fibroblasts (AID 2010); type: functional;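 also: cells exposed to compound for about 90 hours before reading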
[9] = Luminescence Cell-Based Dose Retest to Confirm Inhibitors of Cancer Stem Cells. [Related pubchem assays (depositor defined):AID2717, AID2721]; type: functional; conditions: Homo sapiens
[10] = biological target: Beta-2 adrenergic receptor (Homo sapiens, UniProt P07550); assay: beta2AR agonists driving receptor internalization, dose response, cell-based, FAP fluorogen, flow cytometry, cherry pick 1 (AID 588763); type: functional
Sequence of Beta-2 adrenergic receptor (P07550 whole entry): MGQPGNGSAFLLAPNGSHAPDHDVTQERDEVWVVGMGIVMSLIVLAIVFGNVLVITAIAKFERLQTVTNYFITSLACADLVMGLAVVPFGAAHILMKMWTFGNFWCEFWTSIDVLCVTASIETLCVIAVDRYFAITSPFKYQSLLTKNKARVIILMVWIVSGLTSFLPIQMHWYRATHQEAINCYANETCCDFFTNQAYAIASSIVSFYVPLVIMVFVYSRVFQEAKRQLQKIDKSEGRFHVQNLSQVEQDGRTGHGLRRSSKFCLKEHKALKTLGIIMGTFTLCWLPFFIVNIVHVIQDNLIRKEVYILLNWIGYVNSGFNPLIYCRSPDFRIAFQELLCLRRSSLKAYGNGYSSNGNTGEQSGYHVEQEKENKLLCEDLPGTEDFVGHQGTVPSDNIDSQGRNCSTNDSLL

[11] = Luminescence Cell-Based Dose Confirmation HTS to Identify Activators of 5'UTR Stem-Loop Driven Alpha-Synuclein mRNA Translation in H4 Neuroglioblastoma Cells. [Related pubchem assays: 1829 (Project Summary), 1814 (Primary HTS)]; type: functional
[12] = Luminescence Cell-Based Dose Response HTS to Identify Activators of Luciferase Translation or Activity in H4 […] Cells. [Related pubchem assays: 1829 (Project Summary), 1814 (Primary HTS)]; type: functional
H4 = assay: Luminescence Cell-Based Dose Response HTS to Identify Activators of 5'UTR Stem-Loop Driven Prion Protein mRNA Translation in H4 Neuroglioblastoma Cells. [Related pubchem assays: 1829 (Project Summary), 1814 (Primary HTS)]; type: functional; conditions: Homo sapiens
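For AC50 in this document: cells exposed to compound for roughly 70 hours or longer before luminescence read.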

Sequence of Photoreceptor-specific nuclear receptor (Q9Y5X4 whole entry, the tested form may be a part): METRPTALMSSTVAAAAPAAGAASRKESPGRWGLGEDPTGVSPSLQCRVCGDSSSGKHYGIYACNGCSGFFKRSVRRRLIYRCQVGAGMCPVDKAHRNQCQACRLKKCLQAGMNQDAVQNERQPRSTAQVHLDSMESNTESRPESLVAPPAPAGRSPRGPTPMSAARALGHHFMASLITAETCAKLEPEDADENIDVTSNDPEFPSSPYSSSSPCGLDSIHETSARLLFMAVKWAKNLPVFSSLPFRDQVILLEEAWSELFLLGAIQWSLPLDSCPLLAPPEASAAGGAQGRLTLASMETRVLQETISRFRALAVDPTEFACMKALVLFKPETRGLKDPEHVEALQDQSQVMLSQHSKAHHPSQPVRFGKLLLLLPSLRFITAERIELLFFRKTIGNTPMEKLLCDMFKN

SMILES: CC(C)(C)c1ccc(CSc2nc(N)cc(O)n2)cc1
- IC50 [1]: 5.21 µM (active)

SMILES: Nc1c(N2CCN(c3ccccc3)CC2)c2ccccc2oc1=O
- IC50 (Cysteine protease ATG4B): 20.4 µM (inactive)
- IC50 (Phospholipase A2): 12.9 µM (active)

SMILES: COc1ccc(CC(=O)Oc2ccc(F)c(F)c2)cc1S(=O)(=O)N1CCOCC1
- IC50 (Melanocortin receptor 4): > 64.6 µM (inactive)
- IC50 [2]: > 64.6 µM (inactive)

SMILES: c1ccc(Cc2nnc(-c3ccccc3)o2)cc1
- EC50 (cells [3]): > 350 µM (not active)
- IC50 [4]: 3.3 µM (active)
- EC50 (cells [5]): 56.3 µM (active)
- CC50 [6]: > 40 µM (active)
- CC50 (Vero): 16.3 µM (active)

SMILES: CN(C)CCNC(=O)COc1ccc(C23CC4CC(CC(C4)C2)C3)cc1
- EC50 [7]: 1.83 µM (active)
- EC50 [8]: > 60 µM (inconclusive)
- AC50 [9]: 4.95 µM (active)
- CC50 (Vero): 18.5 µM (active)

SMILES: CCCCC(=O)Nc1ccc(C(=O)N(CC)c2ccccc2C)cc1
- EC50 [10]: 17.5 µM (inactive)

SMILES: O=C(/C=C/c1cccc(O)c1)c1ccc(N2CCOCC2)cc1
- EC50 [11]: > 120 µM (not active)
- EC50 [12]: 12.3 µM (active)
- EC50 (H4): > 120 µM (not active)
- CC50 (Vero): 12.7 µM (active)
